Test [1] concerns CaM76–148, sites III and IV. Type of test: binding, mammalian. Particulars: for increase in calcium-binding affinity (more favorable than without peptide) / ΔΔG2^app = ΔG2^app(CaM + Peptide) − ΔG2 (CaM Alone): 2 eq peptide.
The test system of test [2] is CaM1–148, sites III and IV. It is filed as binding, mammalian. Particulars: for increase in calcium-binding affinity (more favorable than without peptide) / ΔΔG2^app = ΔG2^app(CaM + Peptide) − ΔG2 (CaM Alone): 2 eq peptide, sites III and IV; for effect of N-domain on calcium-binding affinity of the C-domain: CaM1–148 vs CaM76–148, with 2 eq peptide.
The target in another test is CaM1–80 (CaM N-domain) (Homo sapiens, UniProt P0DP23). Type of test: binding, mammalian. Particulars: for ΔG (calcium-saturated): 10 mM CaCl2; for ΔG (calcium-saturated) / ΔG (apo): free energy corresponding to estimated Kd, 22 °C; for Fold Change = (Kd, Apo)/(Kd, Ca^2+): apo vs calcium-saturated; for abundance of the apo CaM-peptide complex: calculated, start of calcium titration, 6 μM CaM1–80 with 2 eq (12 μM) peptide.

For test [3], the target named is CaM1–148 (full-length calmodulin) (Homo sapiens, UniProt P0DP23). It is filed as binding, mammalian. Particulars: for ΔG (calcium-saturated): 10 mM CaCl2; for ΔG (calcium-saturated) / ΔG (apo): free energy corresponding to estimated Kd, 22 °C; for Fold Change = (Kd, Apo)/(Kd, Ca^2+): apo vs calcium-saturated; for abundance of the apo CaM-peptide complex: calculated, start of calcium titration, 6 μM CaM1–148 with 2 eq (12 μM) peptide.

In the next test the test system is CaM1–80, sites I and II. Type of test: binding, mammalian. Particulars: 2 eq peptide.
Another test relates to full-length CaM. Particulars: absence of magnesium, ref [46]; cited from earlier work.
The next test addresses CaM76–148 (CaM C-domain) (Homo sapiens, UniProt P0DP23). Type of test: binding, mammalian. Particulars: for ΔG (calcium-saturated): 10 mM CaCl2; for ΔG (calcium-saturated) / ΔG (apo): free energy corresponding to estimated Kd, 22 °C; for Fold Change = (Kd, Apo)/(Kd, Ca^2+): apo vs calcium-saturated; for abundance of the apo CaM-peptide complex: calculated, start of calcium titration, 6 μM CaM76–148 with 2 eq (12 μM) peptide.

The subject of a further test is CaM1–148, sites I and II. Type of test: binding, mammalian. Particulars: for increase in calcium-binding affinity (more favorable than without peptide) / ΔΔG2^app = ΔG2^app(CaM + Peptide) − ΔG2 (CaM Alone): 2 eq peptide, sites I and II.
The mark [4] stands for this setting: CaM1–148 with 2 eq peptide (Fig. 5A).

Like-named read-outs stand apart in the source and are kept apart here.

On to “CaM76–148: CaM C-domain, encompassing residues 76 to 148”, for which the “ΔΔG2 (CaM76–148 vs CaM1–148)” value in test [1] (CaM alone) is given as 0.17 ± 0.04 kcal/mol.
In the case of “Ac-SRYGLLIKAFSMTAAETARRTREFR-NH2 [hRyR1(1975–1999)p]”, the “increase in calcium-binding affinity (more favorable than without peptide)” value in test [2] came out at 1.09 ± 0.23 kcal/mol; in the test with CaM1–80, sites I and II, 0.82 ± 0.15 kcal/mol; in test [1], 0.69 ± 0.09 kcal/mol; in the test on CaM1–148, sites I and II it was 2.10 ± 0.29 kcal/mol. In addition, the “ΔΔG2^app = ΔG2^app(CaM + Peptide) − ΔG2 (CaM Alone)” value in test [2] is -1.09 ± 0.23 kcal/mol; in the test with CaM1–80, sites I and II it was -0.82 kcal/mol; in the test on CaM1–80, sites I and II (listed as 1975) it was -0.82 ± 0.15 kcal/mol; in test [1], -0.69 ± 0.09 kcal/mol; in the test on CaM1–148, sites I and II it was -2.10 kcal/mol; in the test on CaM1–148, sites I and II (listed as 1975), -2.10 ± 0.29 kcal/mol. For the same substance, the “effect of N-domain on calcium-binding affinity of the C-domain” value in test [2] is reported as “no significant effect”. For the same substance, the “ΔG (calcium-saturated)” value at CaM1–80 (CaM N-domain) is -6.62 ± 0.09 kcal/mol; in test [3] it was -8.34 ± 0.01 kcal/mol; at CaM76–148 (CaM C-domain), -6.80 ± 0.05 kcal/mol. The results for the “Fold Change = (Kd, Apo)/(Kd, Ca^2+)” value (at CaM1–80 (CaM N-domain); in test [3]; on CaM76–148 (CaM C-domain)) were ~600, ~1300 and ~70, respectively. The figures for the “ΔG (apo)” value (at CaM1–80 (CaM N-domain) (apo); in test [3]; on CaM76–148 (CaM C-domain)) were -2.91 kcal/mol, -4.14 kcal/mol and -4.30 kcal/mol, respectively. The “saturation of peptide (anisotropy)” value on CaM1–80 (CaM N-domain) (calcium-saturated (10 mM CaCl2), at ~100 μM CaM1–80) is listed as “greater than 85%”; in test [3] (calcium-saturated, at ~100 μM), “greater than 85%”; at CaM76–148 (CaM C-domain) (calcium-saturated, at ~100 μM), “greater than 85%”. Further, the “abundance of the apo CaM-peptide complex” value (at CaM1–80 (CaM N-domain); in test [3]; at CaM76–148 (CaM C-domain)) was < 2% each time. In addition, the “interaction with apo calmodulin (ITC) in words” value with full-length CaM is on record as “failed to detect an interaction”.
In the case of “Ac-KSKKAVWHKLLSKQRRRAVVACFRMTPLYN-NH2 [hRyR1(3614–3643)p]”, the “increase in calcium-binding affinity (more favorable than without peptide)” value in test [2] amounted to 3.83 ± 0.14 kcal/mol; in the test on CaM1–80, sites I and II, 2.62 ± 0.11 kcal/mol; in test [1], 3.41 ± 0.14 kcal/mol; with CaM1–148, sites I and II, 3.78 ± 0.20 kcal/mol. Further, the “ΔΔG2^app = ΔG2^app(CaM + Peptide) − ΔG2 (CaM Alone)” value was -3.83 ± 0.14 kcal/mol in test [2]; -2.62 ± 0.11 kcal/mol with CaM1–80, sites I and II; -3.41 ± 0.14 kcal/mol in test [1]; -3.78 ± 0.18 kcal/mol with CaM1–148, sites I and II; -3.78 ± 0.20 kcal/mol with CaM1–148, sites I and II (listed as 3614). Moreover, in test [2], the “effect of N-domain on calcium-binding affinity of the C-domain” value was “no significant effect”. For the same substance, the “midpoint of calcium titration, C-domain” value in test [2] (setting [4]) is reported as ~ 100 nM. In addition, the “ΔG (calcium-saturated)” value was -7.59 ± 0.22 kcal/mol on CaM1–80 (CaM N-domain), -12.15 kcal/mol in test [3] and -10.80 kcal/mol at CaM76–148 (CaM C-domain). In addition, the “weaker binding of CaM1–80 than CaM1–148 and CaM76–148 (fold)” value on CaM1–80 (CaM N-domain) (abstract, CaM1–80 required calcium) is recorded as ~ 250 fold. Besides, the “affinity less favorable than that of apo CaM1–148 (factor)” value on CaM1–80 (CaM N-domain) (apo) is 220. Further, the “calcium dependence of interaction in words” value was “requires calcium for association” on CaM1–80 (CaM N-domain) (apo and calcium-saturated); “calcium-independent manner” at CaM76–148 (CaM C-domain) (apo and calcium-saturated). Moreover, the “Fold Change = (Kd, Apo)/(Kd, Ca^2+)” value on CaM1–80 (CaM N-domain) is recorded as ~600; in test [3], ~7000; on CaM76–148 (CaM C-domain), ~2500. For the same substance, the entries for the “ΔG (apo)” value (on CaM1–80 (CaM N-domain) (apo); in test [3]; on CaM76–148 (CaM C-domain)) were -3.81 kcal/mol, -7.02 ± 0.25 kcal/mol and -6.22 ± 0.10 kcal/mol, respectively. The “affinity higher than for hRyR1(1975–1999)p (fold)” value at CaM1–80 (CaM N-domain) (calcium-saturated N-domain) is “approximately 5 fold”. Also, the “ΔΔG (hRyR1(3614–3643)p − hRyR1(1975–1999)p)” value is -0.97 ± 0.24 kcal/mol on CaM1–80 (CaM N-domain) (calcium-saturated N-domain) and ≤ -4.00 kcal/mol on CaM76–148 (CaM C-domain) (calcium-saturated C-domain). In addition, the “abundance of the apo CaM-peptide complex” value at CaM1–80 (CaM N-domain) is given as ~ 1%; in test [3], ~ 64%; at CaM76–148 (CaM C-domain) it was ~ 33%. For the same substance, the Kd in test [3] was ≤ 1 nM; at CaM76–148 (CaM C-domain), ≤ 10 nM. Besides, the values for the binding in words entry in test [3] (apo (absence of calcium)) and in test [3] (high calcium concentrations) were “low micromolar Kd” and “sub-nanomolar Kd”, respectively. On CaM76–148 (CaM C-domain) ((Ca^2+)2-CaMC vs apo CaMC), the “binds (Ca^2+)2-CaMC more favorably than apo CaMC” value was ~ 5 kcal/mol. The “C-domain fragment affinity more favorable than N-domain fragment” value at CaM76–148 (CaM C-domain) (both in the presence and in the absence of calcium) is recorded as 2 orders of magnitude. Further, the “effect of the presence of the C-domain on calcium-binding free energy of sites I and II (more favorable by)” value in the test with CaM1–148, sites I and II (CaM1–148 vs CaM1–80, with 2 eq peptide) was 1.16 ± 0.25 kcal/mol. For the same substance, the “midpoint of calcium titration, N-domain” value in the test with CaM1–148, sites I and II (setting [4]) was ~ 1 μM.

By Kd is commonly meant the free concentration of one partner at which half of the binding sites on the other are occupied at equilibrium, for simple one-to-one binding.
